# In ChEMBL document CHEMBL5532750, “Small molecule targeted therapies for endometrial cancer: progress, challenges, and opportunities” (RSC Med Chem, 2024):
# Assays:
# Ishikawa [1] = test: Anticancer activity against human Ishikawa cells assessed as cell mortality rate at 600 uM measured after 48 hrs by MTT assay relative to control; format: functional
# Ishikawa [2] = test: Anticancer activity against human Ishikawa cells assessed as cell mortality rate at 100 uM measured after 48 hrs by MTT assay relative to control; format: functional
# Ishikawa [3] = test: Anticancer activity against human Ishikawa cells assessed as cell mortality rate at 100 uM measured after 24 hrs by MTT assay relative to control; format: functional
# Ishikawa [4] = test: Antiproliferative activity against human Ishikawa cells assessed as inhibition of VEGF secretion measured after 24 hrs by ELISA assay; format: functional, cell-based
# Ishikawa [5] = test: Antiproliferative activity against human Ishikawa cells assessed as reduction in cell viability; format: functional, cell-based
# Ishikawa [6] = test: Antiproliferative activity against human Ishikawa cells assessed as combination index at 0.5 mM incubated for 48 hrs in presence of paclitaxel by MTT assay; format: functional
# ECC-1 [7] = test: Antiproliferative activity against human ECC-1 cells assessed as combination index at 0.5 mM incubated for 48 hrs in presence of paclitaxel by MTT assay; format: functional
# HEC-1B cell line [8] = test: Antiproliferative activity against human HEC-1B cell line assessed as reduction in cell viability
# USPC-ARK-1 [9] = test: Induction of apoptosis in human USPC-ARK-1 cells assessed as decrease in mitochondrial membrane potential at 5 uM incubated for 8 hrs by JC-1 fluorescent probe based plate reader analysis; format: functional; parameters: scale not given: the % may be the effect or the level left
# SPEC-2 [10] = test: Induction of apoptosis in human SPEC-2 cells assessed as decrease in mitochondrial membrane potential at 5 uM incubated for 8 hrs by JC-1 fluorescent probe based plate reader analysis; format: functional; parameters: scale not given: the % may be the effect or the level left
# ECC-1 [11] = test: Antitumor activity against human ECC-1 cells xenografted in LKB1fl/flp53fl/fl mouse assessed as tumor growth inhibition (reference value: 68 %); format: functional
# USPC-ARK-1 [12] = test: Induction of cell death in human USPC-ARK-1 cells assessed as increase in ROS level at 5 uM incubated for 24 hrs by DCFH-DA based microplate reader analysis relative to control; format: functional
# USPC-ARK-1 [13] = test: Antiproliferative activity against human USPC-ARK-1 cells assessed as reduction in cell viability incubated for 72 hrs by MTT assay; format: functional, cell-based; conditions: USPC-ARK-1, 72 h
# Ishikawa [14] = test: Antitumor activity against human Ishikawa cells xenografted in LKB1fl/flp53fl/fl mouse assessed as tumor growth inhibition (reference value: 68 %); format: functional
# SPEC-2 [15] = test: Induction of cell death in human SPEC-2 cells assessed as increase in cleaved caspase-3 by measuring fold change using Ac-DEVD-AMC as substrate at 5 uM incubated for 24 hrs followed by substrate addition and measured after 30 mins by ELISA analysis; format: functional; conditions: time 1470 min, 24.5 h
# SPEC-2 [16] = test: Induction of cell death in human SPEC-2 cells assessed as increase in caspase-9 by measuring fold change using […] as substrate at 5 uM incubated for 24 hrs followed by substrate addition and measured after 30 mins by ELISA analysis; format: functional; conditions: time 1470 min, 24.5 h
# USPC-ARK-1 [17] = test: Induction of cell death in human USPC-ARK-1 cells assessed as increase in cleaved caspase-3 by measuring fold change using Ac-DEVD-AMC as substrate at 5 uM incubated for 24 hrs followed by substrate addition and measured after 30 mins by ELISA analysis; format: functional; conditions: time 1470 min, 24.5 h
# SPEC-2 [18] = test: Antiproliferative activity against human SPEC-2 cells assessed as reduction in cell viability incubated for 72 hrs by MTT assay; format: functional, cell-based; conditions: SPEC-2, 72 h
# SPEC-2 [19] = test: Induction of cell death in human SPEC-2 cells assessed as increase in ROS level at 5 uM incubated for 24 hrs by DCFH-DA based microplate reader analysis relative to control; format: functional
# SPEC-2 [20] = test: Inhibition of cell invasion in serum-starved human SPEC-2 cells at 0.05 to 5 uM incubated for 3.5 hrs by calcein AM staining based plate reader analysis relative to control; format: functional; conditions: dose 0.05-5 µM
# USPC-ARK-1 [21] = test: Induction of cell death in human USPC-ARK-1 cells assessed as increase in caspase-9 by measuring fold change using […] as substrate at 5 uM incubated for 24 hrs followed by substrate addition and measured after 30 mins by ELISA analysis; format: functional; conditions: time 1470 min, 24.5 h
# USPC-ARK-1 [22] = test: Inhibition of cell invasion in serum-starved human USPC-ARK-1 cells at 0.05 to 5 uM incubated for 3.5 hrs by calcein AM staining based plate reader analysis relative to control; format: functional; conditions: dose 0.05-5 µM
# ECC-1 [23] = test: Antiproliferative activity against human ECC-1 cells assessed as reduction in cell viability; format: functional, cell-based
# ECC-1 [24] = test: Antiproliferative activity against human ECC-1 cells assessed as combination index incubated for 48 hrs in presence of Metformin by MTT assay; format: functional
# Ishikawa [25] = test: Antiproliferative activity against human Ishikawa cells assessed as combination index incubated for 48 hrs in presence of Metformin by MTT assay; format: functional
# Ishikawa [26] = test: Induction of apoptosis in human Ishikawa cell line assessed as fold change incubated for 48 hrs; format: functional
# RL95-2 = test: Induction of apoptosis in human RL95-2 cells assessed as fold change incubated for 48 hrs; format: functional
# HEC-1B cell line [27] = test: Induction of apoptosis in human HEC-1B cell line assessed as fold change incubated for 48 hrs; format: functional
compound,measurement,setting,value
CC(C)CC(/N=C/c1cccc(B(O)O)c1)C(=O)O (stereo not drawn),Activity,Ishikawa [1],88.3%
OB(O)c1ccc(/C=N/c2cccc3cccc(/N=C/c4ccc(B(O)O)cc4)c23)cc1,Activity,Ishikawa [2],72%
CC(C)CC(/N=C/c1ccc(B(O)O)cc1)C(=O)O (stereo not drawn),Activity,Ishikawa [1],76%
OB(O)c1cccc(/C=N/c2ccc(-c3ccc(/N=C/c4cccc(B(O)O)c4)cc3)cc2)c1,Activity,Ishikawa [2],84%
O=C(O)CSC[C@H](/N=C/c1ccc(B(O)O)cc1)C(=O)O,Activity,Ishikawa [3],54%
same,Activity,Ishikawa [2],49%
O=C(O)c1ccc(C(=O)O)c(/N=C/c2ccc(B(O)O)cc2)c1,Activity,Ishikawa [1],72%
O=C(O)CN=C(/N=C/c1ccc(B(O)O)cc1)/N=C/c1ccc(B(O)O)cc1,Activity,Ishikawa [1],18%
OB(O)c1ccc(/C=N/c2ccc(-c3ccc(/N=C/c4ccc(B(O)O)cc4)cc3)cc2)cc1,Activity,Ishikawa [1],14%
CCN(CC)CCCOc1ccc(-n2c3c(c4ccccc4c2=O)C(=O)c2ccccc2-3)cc1,IC50,Ishikawa [4],3.08 nM
O=c1[nH]cc(F)c(=O)[nH]1 [FLUOROURACIL],IC50,Ishikawa [5],> 100000 nM
CN(C)C(=N)NC(=N)N [METFORMIN],CI,Ishikawa [6],<1
same,CI,ECC-1 [7],<1
NC(=O)c1cccc2cn(-c3ccc([C@@H]4CCCNC4)cc3)nc12 [NIRAPARIB],IC50,Ishikawa [5],24 nM
same,IC50,HEC-1B cell line [8],127 nM
O=C1C2=C(CCN(Cc3ccccc3)C2)N2CCN=C2N1Cc1ccc(F)cc1F [ONC-206],Activity,USPC-ARK-1 [9],16%
same,Activity,SPEC-2 [10],16%
same,TGI,ECC-1 [11],73%
same,Activity,USPC-ARK-1 [12],83%
same,IC50,USPC-ARK-1 [13],330 nM
same,TGI,Ishikawa [14],73%
same,fold change (FC),SPEC-2 [15],1.4
same,fold change (FC),SPEC-2 [16],1.4
same,fold change (FC),USPC-ARK-1 [17],1.7
same,IC50,SPEC-2 [18],240 nM
same,Activity,SPEC-2 [19],83%
same,inhibition (INH),SPEC-2 [20],34%
same,fold change (FC),USPC-ARK-1 [21],1.5
same,inhibition (INH),USPC-ARK-1 [22],26.6%
CC(=O)O[C@H]1C(=O)[C@@]2(C)[C@H]([C@H](OC(=O)c3ccccc3)[C@]3(O)C[C@H](OC(=O)[C@H](O)[C@@H](NC(=O)c4ccccc4)c4ccccc4)C(C)=C1C3(C)C)[C@]1(OC(C)=O)CO[C@@H]1C[C@@H]2O [PACLITAXEL],IC50,Ishikawa [5],0.5 nM
same,IC50,ECC-1 [23],0.0001 µM
same,CI,ECC-1 [24],<1
same,CI,Ishikawa [25],<1
CCC(C)(C)C(=O)O[C@H]1C[C@@H](C)C=C2C=C[C@H](C)[C@H](CC[C@@H]3C[C@@H](O)CC(=O)O3)[C@H]21 [SIMVASTATIN],fold change (FC),Ishikawa [26],127
same,IC50,Ishikawa [5],~17000 nM
same,IC50,ECC-1 [23],~15 µM
same,fold change (FC),RL95-2,354
same,fold change (FC),HEC-1B cell line [27],88
